Here are results for 14 compounds from ChEMBL document CHEMBL1156268, “Michael acceptor based antiplasmodial and antitrypanosomal cysteine protease inhibitors with unusual amino acids” (J Med Chem, 2010).

Molecules are shown by their SMILES. Active and inactive are the calls of the source. The rule behind the calls is not given here. Residues, ends and D or L forms follow the SMILES beside them. *: point of attachment. X1 = O=C(/C=C/CO)*

In assay [1] the test system is Plasmodium falciparum. Nature of the assay: Inhibition of Plasmodium falciparum recombinant falcipain-2 at 100 uM by standard fluorescence assay.
Assay [2] concerns the target Rhodesain (Trypanosoma brucei rhodesiense) (UniProt Q95PM0). Put plainly: Inhibition of Trypanosoma brucei rhodesiense recombinant rhodesain at 100 uM by standard fluorescence assay.
The test system of assay [3] is Plasmodium falciparum. Put plainly: Antiplasmodial activity against Plasmodium falciparum W2 at 100 uM by flow cytometry. It is filed as functional.
The test system of assay [4] is Trypanosoma brucei brucei. Put plainly: Antitrypanosomal activity against Trypanosoma brucei brucei at 100 uM. It is filed as functional, organism-based.
Assay [5] concerns Plasmodium falciparum. Put plainly: Inhibition of Plasmodium falciparum recombinant falcipain-3 at 100 uM by standard fluorescence assay.
Assay [6] is described as follows: Inhibition of Plasmodium falciparum recombinant falcipain-2 using Cbz-Leu-Arg-AMC as substrate by standard fluorescence assay.
Assay [7] has as its system Plasmodium falciparum. Nature of the assay: Antiplasmodial activity against Plasmodium falciparum W2 by flow cytometry. It is filed as functional, organism-based.
Assay [8] deals with Trypanosoma brucei brucei. Put plainly: Antitrypanosomal activity against Trypanosoma brucei brucei. It is filed as functional, organism-based.

Sequence of Rhodesain (Trypanosoma brucei rhodesiense) (Q95PM0 1-450): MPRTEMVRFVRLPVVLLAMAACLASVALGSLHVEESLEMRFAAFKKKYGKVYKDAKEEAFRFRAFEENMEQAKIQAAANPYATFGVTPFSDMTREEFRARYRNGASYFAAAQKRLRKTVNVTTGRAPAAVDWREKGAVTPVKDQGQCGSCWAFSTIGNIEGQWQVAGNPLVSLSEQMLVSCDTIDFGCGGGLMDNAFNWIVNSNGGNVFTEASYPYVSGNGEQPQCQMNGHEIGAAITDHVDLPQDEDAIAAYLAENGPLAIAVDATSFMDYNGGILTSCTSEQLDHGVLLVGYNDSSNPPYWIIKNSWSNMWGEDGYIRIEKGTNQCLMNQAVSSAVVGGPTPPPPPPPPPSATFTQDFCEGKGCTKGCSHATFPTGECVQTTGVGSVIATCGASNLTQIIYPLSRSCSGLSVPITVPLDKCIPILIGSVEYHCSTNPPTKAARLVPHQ

The term inhibition denotes how much of the control response was suppressed. Regarding `O=C(O)/C=C/C(=O)N[C@@H](Cc1ccccc1)C(=O)OCc1ccccc1`, the inhibition result (in the assay with Plasmodium falciparum [1]; in the assay with Plasmodium falciparum [3]; in assay [4]) was “inactive” in each case. For the same compound, the inhibition in assay [2] worked out at 11%.
Turning to `CCOC(=O)/C=C/COC(=O)[C@H](CCC(N)=O)NC(=O)[C@H](CC(C)C)NC(=O)OC(C)(C)C`, the inhibition entry (in the assay with Plasmodium falciparum [1]; in assay [2]; in the assay with Plasmodium falciparum [3]; in the assay on Plasmodium falciparum [5]; in assay [4]) was “inactive” throughout.
One may read the Ki as a measure of affinity in units of concentration, obtained from inhibition or displacement. Take `CCOC(=O)/C=C/COC(=O)[C@H](CCC(N)=O)NC(=O)OC(C)(C)C`: the Ki in assay [6] worked out at 37.7 µM. The inhibition entry (in assay [2]; with Plasmodium falciparum [3]; with Plasmodium falciparum [5]; in assay [4]) was “inactive” throughout.
A word on the IC50: it is the concentration that inhibits the measured activity by half. A lower IC50 goes with greater potency in that assay. For the compound `C[C@H](NC(=O)[C@H](Cc1ccccc1)NC(=O)/C=C\C(=O)O)C(=O)OCc1ccccc1`, the Ki in assay [6] turned out to be 25 µM. The IC50 with Plasmodium falciparum [7] was found to be 50.3 µM. In the assay on Plasmodium falciparum [5], the inhibition entry was “inactive”.
`CCOC(=O)/C=C/N[C@@H](CCC(N)=O)C(=O)OC(C)(C)C`: the inhibition entry (with Plasmodium falciparum [1]; in assay [2]; in the assay with Plasmodium falciparum [3]; in the assay on Plasmodium falciparum [5]; in assay [4]) was “inactive” each time.
Take `CC(C)C[C@H](NC(=O)[C@H](C)NC(=O)[C@H](Cc1ccccc1)NC(=O)/C=C\C(=O)O)C(=O)OCc1ccccc1`: in assay [6], the inhibition constant Ki was 10.5 µM. Also, it took 14.6 µM to reach half-maximal inhibition with Plasmodium falciparum [7] (IC50). For the same compound, the inhibition entry with Plasmodium falciparum [5] is “inactive”.
Consider `CCOC(=O)/C=C/COC(=O)[C@H](CC(N)=O)NC(=O)[C@H](CC(C)C)NC(=O)OC(C)(C)C`, for which, in assay [6], the Ki came to 25.1 µM. Moreover, the inhibition result (in assay [2]; in the assay on Plasmodium falciparum [3]; with Plasmodium falciparum [5]; in assay [4]) was “inactive” throughout.
With `CCOC(=O)/C=C/C(=O)N[C@@H](CC(N)=O)C(=O)OC(C)(C)C`, the inhibition entry (in the assay on Plasmodium falciparum [1]; in assay [2]; in the assay on Plasmodium falciparum [3]; in the assay on Plasmodium falciparum [5]; in assay [4]) was “inactive” throughout.
Regarding `CCOC(=O)/C=C/C(=O)O.CCOC(=O)/C=C/C(=O)OC[C@H](CCC(N)=O)NC(=O)[C@@H](NC(=O)OC(C)(C)C)c1ccccc1`, the IC50 in assay [8] was 31.3 µM. For the same compound, the inhibition result in the assay with Plasmodium falciparum [1] was “inactive”. Further, the inhibition in assay [2] was 25%.
`CCOC(=O)/C=C/C(=O)N[C@@H](CC(=O)NC(c1ccccc1)(c1ccccc1)c1ccccc1)C(=O)OC`: in assay [6], the Ki was found to be 12 µM. Besides, the results for the IC50 (with Plasmodium falciparum [7]; in assay [8]) were 7.3 µM and 25.1 µM, respectively. For the same compound, the inhibition in assay [2] was found to be 20%. In the assay with Plasmodium falciparum [5], the inhibition result was “inactive”.
As to `CCOC(=O)/C=C/OC[C@H](CCC(N)=O)NC(=O)OC(C)(C)C`, the inhibition result (in the assay on Plasmodium falciparum [1]; in assay [2]; in the assay with Plasmodium falciparum [3]; with Plasmodium falciparum [5]; in assay [4]) was “inactive” in each case.
Turning to `CCOC(=O)/C=C\C(=O)OC[C@H](Cc1ccccc1)NC(=O)OC(C)(C)C`, in assay [6], the inhibition constant (Ki) turned out to be 54.3 µM. Also, the IC50 is 100 µM in the assay on Plasmodium falciparum [7] and 17 µM in assay [8]. For the same compound, the inhibition result in the assay with Plasmodium falciparum [5] was “inactive”.
As for `CCOC(=O)/C=C/COC(=O)[C@H](CCC(N)=O)NC(=O)[C@@H](NC(=O)OC(C)(C)C)C1CCCCC1`, the Ki in assay [6] came to 25 µM. For the same compound, the IC50 in assay [8] worked out at 32 µM. Besides, the inhibition entry (in assay [2]; in the assay on Plasmodium falciparum [3]; in the assay with Plasmodium falciparum [5]) was “inactive” in each case.
Turning to `CC(C)C[C@H](NC(=O)[C@H](CCC(N)=O)NC(=O)/C=C/CO)C(=O)N[C@H](C(=O)N[C@H](C(N)=O)C(C)C)C(C)C` (X1-QLVV-NH2), the inhibition in the assay on Plasmodium falciparum [1] was 27%. Moreover, in assay [2], the inhibition entry was “inactive”.
